± gives the expanded uncertainty stated by the source.
Test: xn = mol fraction of the nth substance listed
Conditions: 102.2 kPa, Liquid, Vibrating tube method

C[Si](C)(O[Si](C)(C)c1ccccc1)c1ccccc1 [1,3-diphenyltetramethyldisiloxane] + C=C[Si]1(C)O[Si](C)(C=C)O[Si](C)(C=C)O[Si](C)(C=C)O1
mass density [kg/m3]
Conditions	308.15 K	313.15 K	318.15 K	323.15 K	328.15 K
x1 = 0.0511	972.67 ± 0.21	967.57 ± 0.21	962.46 ± 0.21	957.29 ± 0.21	952.25 ± 0.21
x1 = 0.1004	972.68 ± 0.21	967.63 ± 0.21	962.58 ± 0.21	957.53 ± 0.21	952.52 ± 0.21
x1 = 0.1503	972.67 ± 0.21	967.67 ± 0.21	962.67 ± 0.21	957.67 ± 0.21	952.66 ± 0.21
x1 = 0.2	972.66 ± 0.21	967.72 ± 0.21	962.77 ± 0.21	957.83 ± 0.21	952.88 ± 0.21
x1 = 0.2537	972.63 ± 0.21	967.74 ± 0.21	962.86 ± 0.21	957.97 ± 0.21	953.1 ± 0.21
x1 = 0.3001	972.56 ± 0.21	967.72 ± 0.21	962.9 ± 0.21	958.06 ± 0.21	953.26 ± 0.21
x1 = 0.3507	972.42 ± 0.21	967.63 ± 0.21	962.84 ± 0.21	958.04 ± 0.21	953.25 ± 0.21
x1 = 0.4002	972.3 ± 0.21	967.56 ± 0.21	962.83 ± 0.21	958.06 ± 0.21	953.33 ± 0.21
x1 = 0.4503	972.13 ± 0.21	967.44 ± 0.21	962.77 ± 0.21	958.08 ± 0.21	953.42 ± 0.21
x1 = 0.4999	971.87 ± 0.21	967.23 ± 0.21	962.58 ± 0.21	957.92 ± 0.21	953.25 ± 0.21
x1 = 0.5501	971.69 ± 0.21	967.12 ± 0.21	962.54 ± 0.21	957.94 ± 0.21	953.39 ± 0.21
x1 = 0.597	971.42 ± 0.21	966.89 ± 0.21	962.34 ± 0.21	957.8 ± 0.21	953.24 ± 0.21
x1 = 0.6498	971.17 ± 0.21	966.7 ± 0.21	962.23 ± 0.21	957.76 ± 0.21	953.3 ± 0.21
x1 = 0.7005	970.8 ± 0.21	966.35 ± 0.21	961.92 ± 0.21	957.49 ± 0.21	953.06 ± 0.21
x1 = 0.7492	970.45 ± 0.21	966.08 ± 0.21	961.71 ± 0.21	957.33 ± 0.21	952.96 ± 0.21
x1 = 0.8001	970.05 ± 0.21	965.73 ± 0.21	961.41 ± 0.21	957.09 ± 0.21	952.78 ± 0.21
x1 = 0.8497	969.63 ± 0.21	965.36 ± 0.21	961.11 ± 0.21	956.85 ± 0.21	952.59 ± 0.21
x1 = 0.8999	969.05 ± 0.21	964.82 ± 0.21	960.59 ± 0.21	956.35 ± 0.21	952.09 ± 0.21
x1 = 0.9502	968.57 ± 0.21	964.4 ± 0.21	960.23 ± 0.21	956.03 ± 0.21	951.87 ± 0.21
x1 = 1	968.05 ± 0.21	963.94 ± 0.21	959.84 ± 0.21	955.74 ± 0.21	951.65 ± 0.21

Reference: the NIST ThermoML archive (doi:10.1021/acs.jced.5b00820)
